The values that follow come from ChEMBL document CHEMBL4325894, “An update on sphingosine-1-phosphate receptor 1 modulators” (Bioorg Med Chem Lett, 2018).

Where only a bound is given, the exact number is not on record here.

The subject of series [1] is Homo sapiens. Description: Immunosuppressive activity in RRMS patient assessed as decrease in peripheral blood lymphocytes at 20 to 40 mg, po administered as daily dose measured after 8 days relative to control. Set-up: scale not given: the % may be the effect or the level left.
Series [2] is described as follows: Half life in human at 0.5 mg, po administered as single dose measured on day 14 by LC-MS/MS analysis. Conditions: in vivo. It is filed as ADME, organism-based.
In series [3] the test system is Homo sapiens. Description: Immunosuppressive activity in po dosed human assessed as decrease in peripheral blood lymphocyte count measured after 21 days of continuous treatment. It is filed as functional. Conditions: 504 h.
The test system of series [4] is Homo sapiens. As to the kind of experiment: Immunosuppressive activity in po dosed human assessed as decrease in peripheral blood lymphocyte count measured after 24 hrs. It is filed as functional.
Series [5] concerns Homo sapiens. Description: Immunosuppressive activity in human assessed as decrease in peripheral blood lymphocyte count at 0.1 mg/kg, po qd relative to control. It is filed as functional. Also noted: scale not given: the % may be the effect or the level left.
Series [6] is filed under the species Homo sapiens. As to the kind of experiment: Immunosuppressive activity in human assessed as decrease in peripheral blood lymphocytes at 1 mg measured over 2 days relative to control. Set-up: scale not given: the % may be the effect or the level left. It is filed as functional.
A short description of series [7]: Half life in human. It is filed as ADME.
Series [8] has as its system IEC-6. Description: Inhibition of apoptosis in rat IEC-6 cells assessed as decrease in CPT-induced DNA fragmentation relative to control. It is filed as functional.
Series [9] concerns the target T1, Sphingosine 1-phosphate receptor 1 (Homo sapiens, UniProt P21453). As to the kind of experiment: Activation of human recombinant S1P1 expressed in CHO cell membranes after 120 mins by GTP-gamma-35S-binding assay.
The subject of series [10] is IEC-6. Description: Inhibition of apoptosis in rat IEC-6 cells assessed as decrease in CPT-induced DNA fragmentation. The format is functional, cell-based.
Series [11] concerns Homo sapiens. As to the kind of experiment: Immunosuppressive activity in human assessed as decrease in peripheral blood lymphocyte count at 30 mg/kg, po bid relative to control. The format is functional. Set-up: scale not given: the % may be the effect or the level left.
Series [12] has as its system Homo sapiens. As to the kind of experiment: Decrease in CD4+ T lymphocytes in human at 10 mg dosed daily for 28 days measured within 4 to 6 hrs post dose relative to control. The format is functional. Set-up: scale not given: the % may be the effect or the level left.
The test system of series [13] is Homo sapiens. As to the kind of experiment: Decrease in B lymphocytes in human at 10 mg dosed daily for 28 days measured within 4 to 6 hrs post dose relative to control. Set-up: scale not given: the % may be the effect or the level left. The format is functional.
In series [14] the test system is Homo sapiens. Description: In vivo modulatory activity at S1P1 receptor in SPMS patient assessed as reduction in newly enlarge T2 lesion at 1.25 to 2 mg, po administered as daily dose relative to control. It is filed as functional. Also noted: scale not given: the % may be the effect or the level left.
The subject of series [15] is Homo sapiens. Description: Decrease in naive T cells in human at 10 mg dosed daily for 28 days measured within 4 to 6 hrs post dose relative to control. It is filed as functional. Set-up: scale not given: the % may be the effect or the level left.
Series [16] in a line: Half life in human plasma. The format is ADME, cell-free.
For series [17], the target named is T1, Sphingosine 1-phosphate receptor 1. Description: Modulation of S1P1 receptor internalization in HCtAEC assessed as S1P1 expression at 1000 nM after 1 hr by FACS analysis relative to control.
For series [18] the target is unchanged. Description: Modulation of S1P1 receptor internalization in HCtAEC assessed as S1P1 expression at 100 nM after 1 hr by FACS analysis relative to control.
The subject of series [19] is Mus musculus. As to the kind of experiment: Immunosuppressive activity in ip dosed C57BL6 mouse assessed as decrease in CD8+ T lymphocyte count after 5 hrs by FACS analysis. It is filed as functional. (In flow cytometry, cells or beads pass a laser one at a time.)
The test system of series [20] is Mus musculus. Description: Immunosuppressive activity in C57BL6 mouse assessed as decrease in CD8+ T lymphocyte count at 10 mg/kg, ip after 5 hrs by FACS analysis relative to control. The format is functional. Also noted: scale not given: the % may be the effect or the level left.
Series [21] deals with Mus musculus. As to the kind of experiment: Immunosuppressive activity in ip dosed C57BL6 mouse assessed as decrease in CD4+ T lymphocyte count after 5 hrs by FACS analysis. It is filed as functional.
The test system of series [22] is Mus musculus. As to the kind of experiment: Immunosuppressive activity in C57BL6 mouse assessed as decrease in CD4+ T lymphocyte count at 10 mg/kg, ip after 5 hrs by FACS analysis relative to control. The format is functional. Set-up: scale not given: the % may be the effect or the level left.
Series [23] deals with Mus musculus. Description: Immunosuppressive activity in ip dosed C57BL6 mouse assessed as decrease in B220+ B lymphocyte count after 5 hrs by FACS analysis. It is filed as functional.
Series [24] relates to Mus musculus. Description: Immunosuppressive activity in C57BL6 mouse assessed as decrease in B220+ B lymphocyte count at 10 mg/kg, ip after 5 hrs by FACS analysis relative to control. The format is functional. Set-up: scale not given: the % may be the effect or the level left.
Series [25] is filed under the species Homo sapiens. As to the kind of experiment: Selectivity for S1P1 (unknown origin) over S1P5 (unknown origin).

T1 sequence (P21453 whole entry, the tested form may be a part): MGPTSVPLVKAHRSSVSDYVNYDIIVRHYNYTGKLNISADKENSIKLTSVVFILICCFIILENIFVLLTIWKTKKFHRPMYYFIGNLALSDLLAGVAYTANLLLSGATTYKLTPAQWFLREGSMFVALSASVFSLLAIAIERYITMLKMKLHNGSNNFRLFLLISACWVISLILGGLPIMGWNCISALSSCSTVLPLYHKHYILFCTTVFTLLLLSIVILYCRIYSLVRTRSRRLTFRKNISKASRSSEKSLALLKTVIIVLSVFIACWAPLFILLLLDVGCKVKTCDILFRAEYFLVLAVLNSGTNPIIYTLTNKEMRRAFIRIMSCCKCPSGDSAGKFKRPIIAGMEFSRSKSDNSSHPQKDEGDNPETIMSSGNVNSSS

On to `CCC/N=C1/S/C(=C\c2ccc(OC[C@@H](O)CO)c(Cl)c2)C(=O)N1c1ccccc1C`, for which, in series [1], the Activity is 62%.
What is called half-life is the time in which the quantity being followed falls by half. With `CCCc1ccc(COc2ccc3c(c2)CCC(CN2CC(C(=O)O)C2)=C3C)c(OC)c1`, the half-life in [2] lay within 3.41 to 3.71 days.
For orientation: ED50 means the dose at which the effect has come halfway, by size or by number of responders. As to `CCCCCCCCc1ccc(CCC(N)(CO)CO)cc1` [FINGOLIMOD], the values for the ED50 in series [3] and in series [4] were 0.02 mg/kg and 0.041 mg/kg, respectively. For the same molecule, the Activity in series [5] is 80 - 86%; in series [6], 38%. In addition, the half-life in series [7] is 7 days.
`CC(C)Oc1ccc(-c2nc(-c3cccc4c3CC[C@@H]4NCCO)no2)cc1C#N` [OZANIMOD] gave a half-life in series [7] of 0.792 days.
Regarding `CCCCCCCCc1ccc(CC[C@](N)(/C=C/P(=O)(O)O)CO)cc1`, in series [8], the “inhibition (INH)” value came to 21%.
For orientation: EC50 means the concentration that produces a half-maximal response. On to `O=C(O)CCNCc1ccc2sc(-c3ccc(-c4ccccc4)c(C(F)(F)F)c3)cc2c1`, for which the EC50 in series [9] came to 1.2 nM.
Regarding `CCCCCCCCc1ccc(CC[C@@](N)(CO)CCP(=O)(O)O)cc1`, the EC50 in [10] came to 75 nM. The “inhibition (INH)” value in [8] is on record as 50%.
Turning to `Cc1cc([C@@H](C)Nc2cccc(-c3cc(C)c(C(=O)N[C@@H](C)C(=O)O)c(C)c3)c2)ccc1Cl`, in [11], the Activity is 75 - 85%.
`CCc1cc(/C(C)=N/OCc2ccc(C3CCCCC3)c(C(F)(F)F)c2)ccc1CN1CC(C(=O)O)C1` [SIPONIMOD]: the Activity in [12] is 88%; in series [13], 88%; in [14], “<=80%”; in [15] it was 88%. The molecule also gave a half-life in series [16] of 2.35 to 9 days.
Take `C[C@H](Oc1ccc(-c2nc(-c3ccc4[nH]cnc4c3)no2)cc1C(F)(F)F)C(F)(F)F` [ASP-4058]: the figures for the ED50 in series [3] and in [4] were 0.023 mg/kg and 0.1 mg/kg, respectively. Also, the values for the Activity in series [17] and in [18] were 23% and 86%, respectively.
With `CCOc1ccc(-c2nc(-c3cccc4c3CCC4NCCO)no2)cc1OCC` (centres undefined), the values for the ED50 in series [19], in series [21] and in series [23] were 2 mg/kg, 0.5 mg/kg and 1 mg/kg, respectively. Besides, the Activity was found to be 84% in series [20], 83% in [22] and 63% in series [24]. Further, the Selectivity Index in series [25] was 10000.
